# Tested on: NALCN
# Test: Circulating ZsGreen+ cells (CZCs) in peripheral blood of non-tumour-bearing mice after NALCN blockade
# Type: in vivo
# Conditions: Prom1^CreERT2/Lacz; Rosa26^ZSG; Nalcn^+/+ mice without oncogenic alleles, n=10; FIG. 1a
# Description: Peripheral blood (500 μl-1 ml) was harvested from mice at autopsy into 10 μl of 0.5M EDTA, diluted in PBS and assessed by MACSQuant Analyzer (Miltenyi Biotech Inc.) for ZSgreen expression (525/50 nm [FITC] vs 614/50 nm [PI]). Cells for single cell RNA sequencing and tail vein injection were sorted using a BD FACSAria II Cell Sorter (BD Biosciences) excitation at 525/50 nm (FITC) vs 614/50 nm (PI). Non-tamoxifen induced mouse peripheral blood served as a negative control to set gate parameters. Twenty-five thousand ZSG^+ cells were sorted and injected into recipient NOD SCID gamma mice (Charles River) and aged. For serial dilution assessment of tCZC metastasis initiation, tCZCs were isolated from donor tumour-bearing via FACS based on ZSGreen expression and placed into culture medium. Culture medium: Advanced DMEM/F12 (31330038, ThermoFisher), 2 mM L-glutamine (25030024, ThermoFisher), B27 (12587010, ThermoFisher), N2 (A1370701, ThermoFisher), containing growth factors (50 ng/ml EGF [Peprotech], 100 ng/ml bFGF [100-18c, Peprotech] and 1% FBS (10500064, ThermoFisher). Cells were grown at 37° C. in 5% CO2. Recipient NOD SCID gamma mice (Charles River) were injected with either 10, 100, 1,000 or 10,000 tCZC cells via tail-vein injection and aged. Full autopsy and tissue harvesting were performed as described above.
smiles,measurement,value
[Cl][Gd]([Cl])[Cl] [Gadolinium chloride],numbers of CZCs (circulating ZSG+ cells) in peripheral blood; stem cell-like cell shedding,significantly increased
